Results published in publication PMC5327383, “Pneumococcal galactose catabolism is controlled by multiple regulators acting on pyruvate formate lyase” (Scientific Reports, 2017).
Structures can show the parent of a compound that is named as a salt.

Biological target: CcpA (Streptococcus pneumoniae, UniProt A0A0H2ZQ65)
Details: 10 mM; room temperature; raises DNA affinity; direct binding of formate not shown

CcpA, sequence (A0A0H2ZQ65 entry or part of it): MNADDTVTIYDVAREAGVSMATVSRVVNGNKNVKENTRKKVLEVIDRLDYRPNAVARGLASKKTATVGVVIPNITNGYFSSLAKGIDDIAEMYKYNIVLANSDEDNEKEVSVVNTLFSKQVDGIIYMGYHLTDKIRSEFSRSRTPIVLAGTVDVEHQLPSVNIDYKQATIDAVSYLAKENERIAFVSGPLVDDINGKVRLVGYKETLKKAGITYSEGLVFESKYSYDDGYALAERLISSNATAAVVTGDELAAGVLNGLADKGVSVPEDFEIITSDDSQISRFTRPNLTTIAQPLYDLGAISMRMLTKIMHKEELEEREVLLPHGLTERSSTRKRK

## O=CO [sodium formate]
  EMSA with pflB promoter DNA, protein preincubated with compound: formate enhanced the binding of CcpA to PpflB
